This note sets out measurements from patent US20090012014A1, “Compound, Composition and a Process Thereof” (INDUS BIOTECH PVT. LTD, priority 2007, published 2009).

The structures appear in SMILES notation. Marks after values point to notes of the source that are not given here.

Data set [1] concerns TNF-α. In words: TNF-α level in serum of FCA induced arthritic rat. The data set is classed as in vivo. The procedure: (§1) This activity mimics the onset of autoimmune damage to joints and tests the efficiency of drug against this damage. Leflunamide is taken as positive control. Here Swiss Wistar rats are treated with Freunds Complete Adjuvant (CFA) to induce chronic inflammation symptoms similar to rheumatis diseases. The symptoms appear by 13th day. The drug treatment is started from 13th day to 23rd day for 10 days.
Effect of Test compound and standard drug Celecoxib on TNF-α level in FCA induced arthritis rat. The serum from the FCA induced arthritic rat was examined for Tumor necrosis factor alpha. The experimental protocol was same as example no.

Data set [2] has as its system Cotton pellet Granuloma. In words: Sub acute study: cotton pellet granuloma. In kind it is in vivo, Swiss Wistar rats. The note with it: Dose 10 mg/kg; dried pellet weight after 7 days. As for the experimental part:
This evaluates inflammation over a period of 7 days. This is done by classical animal model (in Swiss Wistar tats) of cotton pallet granuloma. Celecoxib is a positive control for comparison of the efficacy of Test Compound.
100 mg per kg is the optimal dose. A comparison is made with Celecoxib.

In data set [3] the test system is paw edema in Carrageenan model. Kind of data set: Acute study: Carrageenan induced paw edema. The data set is classed as in vivo, Swiss Wistar rats. The settings on record: Dose 10 mg/kg; paw volume at 3 hrs. As for the experimental part:
These tests are for the inhibition of inflammation caused by prostaglandins in short period of time. This can be tested in animal (Swiss Wistar rats) as per well known protocols which are treated with Carrageenan. This model tests out anti-inflammatory activity caused by prostaglandin inhibition. Celecoxib is given as a positive control to do a comparison and evaluate the efficacy of anti-inflammatory purified extract as described above in Prostaglandin inhibition in 3 hrs.
Paw Volume measured is compared with Control group and standard drug, celecoxib. Paw volume initial to the paw volume at 1 h, 2 h, 3 h is measured and peak inhibition, which is at 3 hrs is noted down. In this model efficacy as well as dosage of drug is arrived by considering peak % inhibition. […] This is also not statistically significant.
For orientation: In the carrageenan paw model, swelling and tenderness develop within hours.

Data set [4] relates to gastric mucosa. In words: Gastric ulcerogenic effects after repeated oral administration. The data set is classed as in vivo, male Swiss Wistar rats. The source says:
Gastric ulcerogenic effects of Test compound and celecoxib after repeated oral administration for 7 consecutive days to the male Swiss Wistar rats.
In the control group, structure of the gastric mucosa appears normal.

Data set [5] deals with FCA induced arthritis. In words: Chronic study: FCA (Freunds Complete Adjuvant) induced arthritis. The note with it: Dose 10 mg/kg. The data set is classed as in vivo, Swiss Wistar rats. As for the experimental part: as §1
In addition, a disseminated arthritic reaction (secondary response) developed from […] alter FCA injection. The swelling was observed both in the injected paw and in the non-injected contra lateral paw. The reduction of the planter volume was statistically significant for both hind legs. The test compound gave a very impressive reduction of 52% at 100 mg per kg dose which is statistically significant. This compared very well with DMARD drug Leflunomide. However, Leflunomide is highly nephrotoxic and cannot be administered for a long time.

The subject of data set [6] is C-reactive protein. Kind of data set: C-reactive protein test (CRP test kit) in FCA arthritis model. The data set is classed as in vivo, Swiss Wistar rats. The settings on record: CRP test kit, precipitate. As for the experimental part: This activity mimics the onset of autoimmune damage to joints and tests the efficiency of drug against this damage. Leflunamide is taken as positive control. Here Swiss Wistar rats are treated with Freunds Complete Adjuvant (CFA) to induce chronic inflammation symptoms similar to rheumatis diseases. The symptoms appear by 13th day. The drug treatment is started from 13th day to 23rd day for 10 days. […] In this method the CRP test kit ([…], Dreadnought Trading Estate Bridgeport Dorset DT6 5BU UK) was used for the measurement of CRP. The results are expressed either […] or -ve depending on the formation of precipitate Normal range of CRP: up to 6 mg/L. Below this level is considered to be negative.

Setting [7] is: male, Swiss Wistar, rat, in vivo, po, 5 mg/kg, 7 days.

With `Cc1ccc(-c2cc(C(F)(F)F)nn2-c2ccc(S(N)(=O)=O)cc2)cc1` [Celecoxib, reference compound], in data set [1] (Day 0), the “Concentration of TNF-α in pg/mL Day 0” value is recorded as 28.9 pg/mL. Moreover, the “Concentration of TNF-α in pg/mL Day 13” value in data set [1] (Day 13) is reported as 47.9 pg/mL. In data set [1] (Day 21), the “Concentration of TNF-α in pg/mL Day 21” value was 33.6 pg/mL. Moreover, the “Anti-inflammatory activity (% Inhibition) in Cotton pellet Granuloma” value in data set [2] is reported as 43.2** %. The “Anti-inflammatory activity (% Inhibition) in Carrageenan model In 3 Hrs.” value in data set [3] was 45.2** %. In data set [4] (Dose 5 mg/kg p.o., 7 consecutive days), the “Mean score of Lesion intensity” value is recorded as 1.6. Further, in data set [4] (setting [7]), the “Average of no. of ulcer per animal” value is on record as 2, the “No. of animals with ulcer” value is on record as 2, the “No. of animals with ulcer (%)” value is reported as 33.3% and the “Ulcer Index (UI)” value turned out to be 3.7.

In the case of `Cc1oncc1C(=O)Nc1ccc(C(F)(F)F)cc1` [Leflunamide, reference compound], the “Anti-inflammatory activity (% Inhibition) in FCA induced arthritis Day 18” value in data set [5] (Day 18, treatment from 13th day) is on record as 35.22* %. Also, the “Anti-inflammatory activity (% Inhibition) in FCA induced arthritis Day 23” value in data set [5] (Day 23, treatment 13th to 23rd day) is 76.55** %. In addition, the “C-reactive protein After 10 Day Treatment” value in data set [6] (After 10 Day Treatment) is listed as “Negative (Normal range of CRP: up to 6 mg/L. Below this level is considered to be negative)”. In data set [6] (Before Treatment), the “C-reactive protein Before Treatment” value was “Negative (Normal range of CRP: up to 6 mg/L. Below this level is considered to be negative)”.
